# Values quoted from earlier work in PMC12454493, “Insight on novel sulfamoylphenyl pyrazole derivatives as anticancer carbonic anhydrase inhibitors” (Molecular Diversity, 2024).
# Tests used:
# [1] = biological target: hCA IX (Homo sapiens, UniProt Q16790); conditions: cited from earlier work
# [2] = biological target: hCA XII (Homo sapiens, UniProt O43570); conditions: cited from earlier work
# Sequence of hCA XII (O43570 25-354): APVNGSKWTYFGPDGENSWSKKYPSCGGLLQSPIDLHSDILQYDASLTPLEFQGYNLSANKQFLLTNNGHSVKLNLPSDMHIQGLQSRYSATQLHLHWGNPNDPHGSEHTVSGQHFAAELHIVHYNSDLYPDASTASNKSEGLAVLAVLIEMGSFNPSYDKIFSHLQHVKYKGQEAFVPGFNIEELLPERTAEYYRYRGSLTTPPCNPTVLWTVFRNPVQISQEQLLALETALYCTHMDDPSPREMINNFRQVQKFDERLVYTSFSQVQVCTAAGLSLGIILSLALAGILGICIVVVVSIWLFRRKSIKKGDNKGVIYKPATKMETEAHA
smiles,measurement,setting,value
COc1ccc(C2CC(C3=CC=CCC3=S)=NN2c2ccc(S(N)(=O)=O)cc2)c(OC)c1OC (centres unmarked) [IV],Ki,[1],44 nM
same,Ki,[2],9 nM
